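Following 48 hours of exposure in 96-well plates, responses at five concentrations were used to interpolate endpoints linearly. TGI denotes the concentration required for complete inhibition of growth.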
Assays:
Test in all cases: growth of human tumour cells (NCI), 48 h
HOP-62 NSCLC = tested on: HOP-62 NSCLC
UACC-257 melanoma = tested on: UACC-257 melanoma
SF-268 CNS = tested on: SF-268 CNS
HL-60(TB) leukemia = tested on: HL-60(TB) leukemia
MOLT-4 leukemia = tested on: MOLT-4 leukemia
DMS 273 small cell lung = tested on: DMS 273 small cell lung
NCI-H23 lung = tested on: NCI-H23 lung
HCC-2998 colon = tested on: HCC-2998 colon
IGROV1 ovarian = tested on: IGROV1 ovarian
NCI-H226 lung = tested on: NCI-H226 lung
COLO 205 colon = tested on: COLO 205 colon
HT29 colon = tested on: HT29 colon
M14 melanoma = tested on: M14 melanoma
A549 NSCLC = tested on: A549 NSCLC
HOP-92 NSCLC = tested on: HOP-92 NSCLC
LXFL 529 NSCLC = tested on: LXFL 529 NSCLC
RPMI-8226 leukemia = tested on: RPMI-8226 leukemia
XF 498 CNS = tested on: XF 498 CNS
SNB-19 CNS = tested on: SNB-19 CNS
SF-539 CNS = tested on: SF-539 CNS
SK-MEL-28 melanoma = tested on: SK-MEL-28 melanoma
NCI-H522 lung = tested on: NCI-H522 lung
LOX IMVI melanoma = tested on: LOX IMVI melanoma
A498 renal = tested on: A498 renal
SW-620 colon = tested on: SW-620 colon
SNB-78 CNS = tested on: SNB-78 CNS
OVCAR-5 ovarian = tested on: OVCAR-5 ovarian
U251 CNS = tested on: U251 CNS
EKVX NSCLC = tested on: EKVX NSCLC
SK-MEL-5 melanoma = tested on: SK-MEL-5 melanoma
OVCAR-4 ovarian = tested on: OVCAR-4 ovarian
CAKI-1 renal = tested on: CAKI-1 renal
786-0 renal = tested on: 786-0 renal
KM12 colon = tested on: KM12 colon
SK-OV-3 ovarian = tested on: SK-OV-3 ovarian
SK-MEL-2 melanoma = tested on: SK-MEL-2 melanoma
DLD-1 colon = tested on: DLD-1 colon
RXF 393 renal = tested on: RXF 393 renal
KM20L2 colon = tested on: KM20L2 colon
SF-295 CNS = tested on: SF-295 CNS
M19-MEL melanoma = tested on: M19-MEL melanoma
OVCAR-8 ovarian = tested on: OVCAR-8 ovarian
UO-31 renal = tested on: UO-31 renal
SN12C renal = tested on: SN12C renal
UACC-62 melanoma = tested on: UACC-62 melanoma
TK-10 renal = tested on: TK-10 renal
HCT-116 colon = tested on: HCT-116 colon
CCRF-CEM leukemia = tested on: CCRF-CEM leukemia
K-562 leukemia = tested on: K-562 leukemia
HCT-15 colon = tested on: HCT-15 colon
DMS 114 small cell lung = tested on: DMS 114 small cell lung
ACHN renal = tested on: ACHN renal
MALME-3M melanoma = tested on: MALME-3M melanoma
SNB-75 CNS = tested on: SNB-75 CNS
NCI-H460 lung = tested on: NCI-H460 lung
HOP-18 NSCLC = tested on: HOP-18 NSCLC
RXF-631 renal = tested on: RXF-631 renal
OVCAR-3 ovarian = tested on: OVCAR-3 ovarian
SR leukemia = tested on: SR leukemia

Measured: TGI

O=C1CCCCC1C1(O)C(=O)Nc2cc(F)ccc21 (centres undefined)
not listed: RXF-631 renal | OVCAR-3 ovarian | SR leukemia
> 100 µM: all other assays above

NC1=NN(c2ccccc2)C(=O)C1C(=O)C(=O)NC1C2CC3CC(C2)CC1C3 (centres undefined)
not listed: RPMI-8226 leukemia | XF 498 CNS | NCI-H522 lung | A498 renal | CAKI-1 renal | SNB-75 CNS
> 100 µM: all other assays above

Reference: PubChem BioAssay (NCI)
